According to patent US8383636B2, “Acyclic amine inhibitors of 5-methytioadenosine phosphorylase and nucleosidase” (priority 2006, dated 2013):

What was measured:
[1] = target: T1, E. coli MTAN (Escherichia coli, UniProt P0AF12); assay: Inhibition constants with E. coli MTAN (xanthine oxidase-coupled assay); format: biochemical; details: 25° C., pH 7.5, MTA as substrate
T1 construct: made in house
Description: (§1) E. coli MTAN and human MTAP were obtained according to the reported methods (Singh, et al, Biochemistry 44, 11647-11659 (2005); Singh and Schramm J. Am. Chem. Soc. 128, 14691-14696 (2006). The MTAN gene sequences from N. meningitides MC58 and H. pylori J99 were amplified from genomic DNA (ATCC) and cloned into a modified pET-32 vector to direct high-level expression of MTAN with a non-cleavable N-terminal 6His tag. 1.5 L cultures of BL21(DE3) harbouring MTAN constructs were induced with 0.5 mM IPTG for 20 hours at 25° C. with vigorous shaking. Cell pellets were washed and lysed in 40 mL lysis buffer (25 mM HEPES, 0.5M NaCl, 10 mM imidazole pH 7.6, protease inhibitors and 0.25 mM TCEP) with the use of a cell disrupter at 15K psi. After removal of cell debris by centrifugation, the soluble cell lysates were loaded onto nickel-charged chelating sepharose (GE Healthcare) and washed with lysis buffer containing 20-150 mM imidazole. The 6His-MTANs were eluted in 250 mM imidazole, desalted using a Sephadex G-15 (GE Healthcare) gel filtration column, equilibrated with low salt buffer (100 mM HEPES, 30 mM KCL, pH 7.6) and concentrated to 40 mg/mL.
(§2) Inhibitor concentrations were obtained from the absorbance at 274 nm with extinction coefficient of 8.5 mM^−1 cm^−1 for 9-deazaadenine moiety.
(§3) MTAN activities were assayed as reported previously (Singh et al (2006) Biochemistry 45, 12929-12941; Singh, et al (2005) J. Biol. Chem. 280, 18265-18273). Briefly, all experiments were carried out at 25° C., in 1 mL total reaction volume containing 100 mM HEPES buffer, pH 7.5 and 50 mM KCl with 5′-deoxymethylthioadenosine (MTA) as substrate. Kinetic constants (kcat and Km) were determined by monitoring MTA hydrolysis at 274 nm where ΔεMTA=1.6 mM^−1 cm^−1. For measuring dissociation constant (Kd) of inhibitors, a xanthine oxidase-coupled assay was carried out. In this assay, saturating levels (1-2 mM) of MTA and various concentrations of inhibitor were mixed with xanthine oxidase (0.5 unit/mL), which is used to convert the MTAN product adenine to 2,8-dihydroxyadenine (ε2,8-dihydroxadenine=15.2 mM^−1 cm^−1 at 293 nm). Reactions were initiated by the addition of 8-10 nM MTAN, and the absorbance at 293 was monitored. Control experiments were carried out in the absence of either inhibitor or MTAN.
(§4) [formula] where vs′ and vs are steady state rates in the presence, and absence of inhibitor, respectively; Km is substrate Michaelis constant which was obtained as described above; [S] and [I] are the concentrations of the substrate MTA and inhibitor, respectively. […] All data fitting was carried out with KaleidaGraph™ ver. 3.5 (Synergy Software).

[2] = target: N. meningitides MTAN (Neisseria meningitidis, UniProt Q9K054); assay: Inhibition constants with N. meningitides MTAN (xanthine oxidase-coupled assay); format: biochemical, N. meningitides MC58; details: 25° C., pH 7.5, MTA as substrate
Sequence of N. meningitides MTAN (Q9K054 entry or part of it): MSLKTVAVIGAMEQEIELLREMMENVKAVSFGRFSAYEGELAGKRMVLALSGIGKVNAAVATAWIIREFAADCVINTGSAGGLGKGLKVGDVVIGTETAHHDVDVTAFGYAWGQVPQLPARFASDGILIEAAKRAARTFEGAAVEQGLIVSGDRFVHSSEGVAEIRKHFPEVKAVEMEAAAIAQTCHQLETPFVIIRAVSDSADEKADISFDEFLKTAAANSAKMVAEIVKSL
Description: as §1, §2, §3, §4

[3] = target: T2, human MTAP (Homo sapiens, UniProt Q13126); assay: Inhibition constants with MTAP (continuous spectrophotometric assay); format: biochemical
T2 construct: made in house
T2 sequence (Q13126 1-283): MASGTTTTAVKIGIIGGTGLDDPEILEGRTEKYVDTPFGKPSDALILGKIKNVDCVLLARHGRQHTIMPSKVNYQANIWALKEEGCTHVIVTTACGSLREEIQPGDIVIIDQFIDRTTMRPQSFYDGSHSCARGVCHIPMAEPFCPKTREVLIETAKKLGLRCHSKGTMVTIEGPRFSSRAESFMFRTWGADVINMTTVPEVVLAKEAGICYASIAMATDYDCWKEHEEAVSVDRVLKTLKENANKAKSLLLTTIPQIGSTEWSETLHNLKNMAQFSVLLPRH
Description: After removal of cell debris by centrifugation, the soluble cell lysates were loaded onto nickel-charged chelating sepharose (GE Healthcare) and washed with lysis buffer containing 20-150 mM imidazole. The 6His-MTANs were eluted in 250 mM imidazole, desalted using a Sephadex G-15 (GE Healthcare) gel filtration column, equilibrated with low salt buffer (100 mM HEPES, 30 mM KCL, pH 7.6) and concentrated to 40 mg/mL.
Continuous spectrophotometric assays were used to characterize the inhibitors of the invention and […] inhibition of MTAP.

T1 sequence (P0AF12 whole entry): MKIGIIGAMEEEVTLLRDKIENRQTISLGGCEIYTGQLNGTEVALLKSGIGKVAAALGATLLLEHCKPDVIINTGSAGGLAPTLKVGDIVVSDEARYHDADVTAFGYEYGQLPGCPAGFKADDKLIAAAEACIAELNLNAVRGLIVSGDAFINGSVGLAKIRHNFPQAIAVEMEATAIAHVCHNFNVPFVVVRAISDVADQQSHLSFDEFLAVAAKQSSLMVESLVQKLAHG

SMILES | Kd [1] [nM] | Kd [2] [nM] | Kd [3] [nM]
CSC[C@H](CO)N[C@H](CO)c1c[nH]c2c(N)ncnc12 [Example 12, (S)-2-((S)-1-(4-amino-5H-pyrrolo[3,2-d]pyrimidin-7-yl)-2-hydroxyethylamino)-3-(methylthio)propan-1-ol] | 154 ± 15 | 47 ± 4 | 130 ± 20
CSC[C@@H](O)CNCc1c[nH]c2c(N)ncnc12 [Example 2, (S)-1-((4-amino-5H-pyrrolo[3,2-d]pyrimidin-7-yl)methylamino)-3-(methylthio)propan-2-ol] | 4 ± 0.5 | 3.6 ± 0.4 | 60 ± 8
CSC[C@H](O)[C@@H](CO)CN(C)Cc1c[nH]c2c(N)ncnc12 (racemic) [Example 10, (2RS,3RS)-2-((((4-amino-5H-pyrrolo[3,2-d]pyrimidin-7-yl)methyl)(methyl)amino)methyl)-4-(methylthio)butane-1,3-diol] | 65 ± 6 | 132 ± 9 | –
CSC[C@H](O)[C@H](CO)NCc1c[nH]c2c(N)ncnc12 [Example 7, (2S,3R)-2-((4-amino-5H-pyrrolo[3,2-d]pyrimidin-7-yl)methylamino)-4-(methylthio)butane-1,3-diol] | – | – | 87 ± 11
CSC[C@@H](CNCc1c[nH]c2c(N)ncnc12)[C@@H](O)CO (racemic) [Example 3, (2RS,3SR)-4-[(4-amino-5H-pyrrolo[3,2-d]pyrimidin-7-yl)methylamino]-3-(methylthiomethyl)butane-1,2-diol] | 9 ± 2 | 5 ± 1 | –
CSC[C@H](O)[C@@H](CO)CNCc1c[nH]c2c(N)ncnc12 (racemic) [Example 9, (2RS,3RS)-2-{[(4-amino-5H-pyrrolo[3,2-d]pyrimidin-7-yl)methylamino]methyl}-4-(methylthio)butane-1,3-diol] | 25 ± 2 | 12.8 ± 0.9 | 278 ± 27
CSC[C@@H](CN(C)Cc1c[nH]c2c(N)ncnc12)[C@@H](O)CO [Example 4, (2R,3S)-4-(((4-amino-5H-pyrrolo[3,2-d]pyrimidin-7-yl)methyl)(methyl)amino)-3-(methylthiomethyl)butane-1,2-diol] | 2300 ± 600 | – | –
CSC[C@H](O)[C@@H](O)CN(C)Cc1c[nH]c2c(N)ncnc12 [Example 11, (2S,3R)-1-(((4-amino-5H-pyrrolo[3,2-d]pyrimidin-7-yl)methyl)(methyl)amino)-4-(methylthio)butane-2,3-diol] | 202 ± 35 | – | –
CSC[C@@H](O)[C@@H](CO)N(C)Cc1c[nH]c2c(N)ncnc12 [Example 8, (2R,3S)-2-(((4-amino-5H-pyrrolo[3,2-d]pyrimidin-7-yl)methyl)(methyl)amino)-4-(methylthio)butane-1,3-diol] | 62 ± 5 | 19.3 ± 0.3 | 88 ± 21
CSCC(CO)(CO)NCc1c[nH]c2c(N)ncnc12 [Example 1, 2-((4-amino-5H-pyrrolo[3,2-d]pyrimidin-7-yl)methylamino)-2-(methylthiomethyl)propane-1,3-diol] | 5.8 ± 0.8 | 4 ± 2 | 34 ± 24
